# Reference: patent US10478437B2, “Combination therapy to enhance the anticancer efficacy of platinum drugs” (University of Pittsburgh-of the Commonwealth System of …, priority 2014, dated 2019)
# System: cisplatin-resistant ovarian cancer cell line A2780cis
# Assay: Caspase-3/7 activity assay (apoptotic cell death), compound alone or with cisplatin
# Type: cell-based, human
# Details: for caspase-3/7 activity (Lum), compound with cisplatin / caspase-3/7 activity (Lum), compound alone: Table 1, 20 h; for caspase-3/7 activity (Lum), compound with cisplatin: compound 20 μM with 20 μM cisplatin; for caspase-3/7 activity (Lum), compound alone: compound 20 μM, mean ± S.D. of triplicates; for activity in the screen (Caspase-3/7 activity and microscopic examination), active / inactive: alone or in the presence of cisplatin, in words
# Experimental: Cell proliferation was determined using a CyQUANT Direct Cell Proliferation Assay kit (Invitrogen), the activity of caspase-3/7 was measured using a Caspase-Glo 3/7 Assay Systems (Promega, Madison, Wis.), and the MTS calorimetric survival assay was performed using the CellTiter 96 AQueous One Solution Cell Proliferation Assay kit (Promega, Madison, Wis.), according to the manufacturer's instructions. The survival fractions were calculated after setting untreated control cells at 100%. The data were plotted and curve fitted using GraphPad Prism software. To quantify the number of cells with active caspase-3, cells were fixed with 4% paraformaldehyde (Electron microscopy sciences, Hatfield, Pa.), stained with Alexa Fluor-488 conjugated antibody against cleaved caspase-3 (Asp175) (Cell Signaling Technology, Danvers, Mass.) followed by flow cytometry. An FITC Annexin V Apoptosis Detection Kit (BD PharMingen, San Diego, Calif.) was used to quantify apoptotic cells, according to the manufacturer's instructions.
# A Caspase-3/7 assay was performed to evaluate the activity of the 36 compounds of FIG. 1 in vitro in the cisplatin-resistant ovarian cancer cell line, A2780cis, alone or in the presence of cisplatin. A microscopic examination of apoptotic morphologic changes was also carried out right before the measurement of Caspase-3/7 activity, in order to confirm that the data on the activation of the Caspase-3/7 following treatment is consistent with morphological change and reflects cell death.
Compound,"caspase-3/7 activity (Lum), compound with cisplatin","caspase-3/7 activity (Lum), compound alone","activity in the screen (Caspase-3/7 activity and microscopic examination), active / inactive"
Cc1ccc(-c2csc3[nH]c(=S)n(-c4ccccc4)c(=O)c23)o1 [Compound 1-1],28 ± 1 Lum,12 ± 1 Lum,inactive
CC1CCc2c(sc3[nH]c(=S)n(Cc4ccccc4)c(=O)c23)C1 (stereo not drawn) [Compound 1-2],25 ± 3 Lum,12 ± 1 Lum,inactive
C=CCn1c(=S)[nH]c2scc(-c3ccc(C)c(C)c3)c2c1=O [Compound 1-3],28 ± 2 Lum,12 ± 1 Lum,inactive
CN(C)CCn1c(=S)[nH]c2ccc(Cl)cc2c1=O [Compound 1-5],32 ± 1 Lum,13 ± 1 Lum,–
Cc1cccc2c(=O)n(CCN(C)C)c(=S)[nH]c12 [Compound 1-7],20 ± 3 Lum,12 ± 2 Lum,–
O=C(CCn1c(=S)[nH]c2ccccc2c1=O)N1CCOCC1 [Compound 1-9],23 ± 1 Lum,13 ± 1 Lum,–
Cc1[nH]c(=S)[nH]c(=O)c1CCC(=O)N1CCOCC1 [Compound 1-10],21 ± 2 Lum,14 ± 1 Lum,–
Cc1[nH]c(=S)[nH]c(=O)c1CCC(=O)NCCc1c[nH]c2ccccc12 [Compound 1-11],18 ± 2 Lum,12 ± 1 Lum,–
CC1CCN(CCCn2c(=S)[nH]c3ccccc3c2=O)CC1 [Compound 1-12],23 ± 3 Lum,10 ± 1 Lum,–
O=C(CCn1c(=S)[nH]c2ccccc2c1=O)NCC1(c2ccccc2)CCCC1 [Compound 1-13],35 ± 3 Lum,14 ± 1 Lum,–
O=C(CCCCCn1c(=S)[nH]c2ccccc2c1=O)NCc1ccc2c(c1)OCO2 [Compound 1-14],22 ± 2 Lum,11 ± 1 Lum,–
C=CCn1c(=S)[nH]c2scc(-c3ccc(Oc4ccccc4)cc3)c2c1=O [Compound 1-15],28 ± 3 Lum,12 ± 2 Lum,inactive
COCCCn1c(=S)[nH]c2cc(C(=O)Nc3ccc(F)c(F)c3)ccc2c1=O [Compound 1-16],18 ± 3 Lum,10 ± 1 Lum,–
O=C(CCn1c(=O)[nH]c2ccccc2c1=O)NCCCOc1ccc(F)cc1 [Compound 1-18],19 ± 3 Lum,12 ± 1 Lum,–
COc1ccccc1Cn1c(=S)[nH]c2ccccc2c1=O [Compound 1-20],39 ± 3 Lum,13 ± 1 Lum,–
C=CCn1c(=S)[nH]c2cc(C(=O)Nc3cc(OC)c(OC)c(OC)c3)ccc2c1=O [Compound 1-22],25 ± 2 Lum,16 ± 1 Lum,–
CN(Cc1ccc(Cl)c(Cl)c1)C(=O)CCn1c(=O)[nH]c(=O)c2ccccc21 [Compound 1-23],27 ± 1 Lum,15 ± 1 Lum,–
CC(C)CC(NC(=O)Cn1c(=O)[nH]c(=O)c2ccccc21)c1ccccc1 (stereo not drawn) [Compound 1-25],33 ± 2 Lum,15 ± 1 Lum,–
N#Cc1c(-c2ccc(Br)cc2)[nH]c(=S)[nH]c1=O [Compound 1-26],26 ± 1 Lum,14 ± 3 Lum,–
